Measured values from PMC7069944, “Amino acid levels determine metabolism and CYP450 function of hepatocytes and hepatoma cell lines” (Nature Communications, 2020).
Values joined by “and” are separate entries in the source; they are usually repeats but may differ in a detail not shown here. Equal values may be shown once.

Experiments:
HC6X = test: Repeated-exposure DILI training compounds, resazurin conversion, HC6X; conditions: listed as Nefadazone; for resazurin conversion (Supplementary Figure 7D): replicates; for % resazurin conversion: repeat exposure
Procedure: (§1) To evaluate the ability to predict hepatotoxicity, we adapted the differentiation assays to a 384-well format. […] As a readout, we evaluated cell viability by resazurin conversion and correlated the results to therapeutic doses (Cmax values).
(§2) PSCs were differentiated in a 384-well format. […] As a negative control, 41 wells were left untreated. HepG2 were seeded at 40,000 cells per well. […] Cells were fixed with 4% PFA. […] Drugs were administrated after 8 h of attachment.

HLC = test: Repeated-exposure DILI training compounds, resazurin conversion, HLC; conditions: listed as Nefadazone; for resazurin conversion (Supplementary Figure 7D): replicates; for % resazurin conversion: repeat exposure
Procedure: as §1, §2

HC3X = test: Repeated-exposure DILI training compounds, resazurin conversion, HC3X; conditions: for resazurin conversion (Supplementary Figure 7D): HC3X AAGLY D40, replicates
Procedure: as §1, §2

HepG2 = test: Repeated-exposure DILI training compounds, resazurin conversion, HepG2; conditions: listed as Nefadazone; for resazurin conversion (Supplementary Figure 7D): replicates; for % resazurin conversion: repeat exposure
Procedure: as §1, §2

CCc1nn(CCCN2CCN(c3cccc(Cl)c3)CC2)c(=O)n1CCOc1ccccc1 [nefazodone]
resazurin conversion (Supplementary Figure 7D) (HC6X; HC6X AAGLY D40, 3 uM): 86.5 and 67.1 and 73.3 and 119.9 and 72.8 and 62.6
resazurin conversion (Supplementary Figure 7D) (HC6X; HC6X AAGLY D40, 5 uM): 140.1 and 114.8 and 61.7 and 68.6 and 76.5 and 54.7
resazurin conversion (Supplementary Figure 7D) (HC6X; HC6X AAGLY D40, 10 uM): 51.6 and 55.1 and 57.3 and 43.6 and 49.8 and 39.8
resazurin conversion (Supplementary Figure 7D) (HC6X; HC6X AAGLY D40, 30 uM): 34.6 and 33.4 and 31.3 and 32.6 and 37.8 and 31.2
resazurin conversion (Supplementary Figure 7D) (HC6X; HC6X AAGLY D40, 50 uM): 34.2 and 34.7 and 32 and 32.2 and 31.8 and 32.4
resazurin conversion (Supplementary Figure 7D) (HC6X; HC6X AAGLY D40, 100 uM): 37.1 and 36.6 and 34.3 and 34.6 and 33.8 and 34.2
resazurin conversion (Supplementary Figure 7D) (HC6X; HC6X AAGLY D40, 300 uM): 40.6 and 41.1 and 39.2 and 40 and 39.1 and 37.4
resazurin conversion (Supplementary Figure 7D) (HC6X; HC6X AAGLY D40, 600 uM): 39.7 and 40.4 and 38.5 and 38.6 and 37.6 and 37.9
resazurin conversion (Supplementary Figure 7D) (HC6X; HC6X AAGLY D40 Remove dox, 3 uM): 183.4 and 100.9 and 109.5 and 115 and 122 and 109.2
resazurin conversion (Supplementary Figure 7D) (HC6X; HC6X AAGLY D40 Remove dox, 5 uM): 251 and 184.4 and 147 and 113 and 98.3 and 98.4
resazurin conversion (Supplementary Figure 7D) (HC6X; HC6X AAGLY D40 Remove dox, 10 uM): 257.2 and 78.2 and 239.1 and 205.6 and 148.8 and 110.7
resazurin conversion (Supplementary Figure 7D) (HC6X; HC6X AAGLY D40 Remove dox, 30 uM): 87 and 111.9 and 134.6 and 112.2 and 58.4 and 83.6
resazurin conversion (Supplementary Figure 7D) (HC6X; HC6X AAGLY D40 Remove dox, 50 uM): 39.8 and 27.8 and 36.9 and 29.8 and 32 and 29.6
resazurin conversion (Supplementary Figure 7D) (HC6X; HC6X AAGLY D40 Remove dox, 100 uM): 29.7 (2×) and 28.9 and 29.4 and 29.6 and 29.1
resazurin conversion (Supplementary Figure 7D) (HC6X; HC6X AAGLY D40 Remove dox, 300 uM): 34.3 and 32.8 and 33.8 and 34 and 34.1 and 34.5
resazurin conversion (Supplementary Figure 7D) (HC6X; HC6X AAGLY D40 Remove dox, 600 uM): 36.7 (2×) and 35.4 and 36 and 36.5 and 36.3
% resazurin conversion (HC6X; HC6X AAGLY D40, 1200 uM): 40.4% and 40.1% and 39.1% and 39.2% and 37.6% and 37.4%
% resazurin conversion (HC6X; HC6X AAGLY D40 Remove dox, 1200 uM): 38.2% and 35.3% and 36.9% and 37.7% and 37% and 35.8%
resazurin conversion (Supplementary Figure 7D) (HLC; HLC AAGLY D40, 3 uM): 81 and 139.4 and 131.8 and 81.1 and 194.1 and 102.8
resazurin conversion (Supplementary Figure 7D) (HLC; HLC AAGLY D40, 5 uM): 158.2 and 102.6 and 130.1 and 239.6 and 167 and 46.2
resazurin conversion (Supplementary Figure 7D) (HLC; HLC AAGLY D40, 10 uM): 117.1 and 195.1 and 92.8 and 87 and 6 and 258.8
resazurin conversion (Supplementary Figure 7D) (HLC; HLC AAGLY D40, 30 uM): 52.4 and 182.9 and 124.1 and 55.1 and 48.3 and 27
resazurin conversion (Supplementary Figure 7D) (HLC; HLC AAGLY D40, 50 uM): 46.9 and 25.2 and 26.1 and 23.4 and 30.1 and 22.3
resazurin conversion (Supplementary Figure 7D) (HLC; HLC AAGLY D40, 100 uM): 22.1 and 23 and 22.5 and 22.9 and 24.2 and 22.8
resazurin conversion (Supplementary Figure 7D) (HLC; HLC AAGLY D40, 300 uM): 25.4 and 26.9 (2×) and 25.9 and 25.8 and 27.1
resazurin conversion (Supplementary Figure 7D) (HLC; HLC AAGLY D40, 600 uM): 27.4 and 30.3 and 28.5 and 29.2 and 27.1 and 28.7
resazurin conversion (Supplementary Figure 7D) (HLC; HLC LDM D40, 3 uM): 101.3 and 106.4 and 83.1 and 128.8 and 110.4 and 128.2
resazurin conversion (Supplementary Figure 7D) (HLC; HLC LDM D40, 5 uM): 103.9 and 126.1 and 116.3 and 112.6 and 76.1 and 103.3
resazurin conversion (Supplementary Figure 7D) (HLC; HLC LDM D40, 10 uM): 114.4 and 115.2 and 124.5 and 104.3 and 103.8 and 111.5
resazurin conversion (Supplementary Figure 7D) (HLC; HLC LDM D40, 30 uM): 92.8 and 75.4 and 51.3 and 90.2 and 120.8 and 118.9
resazurin conversion (Supplementary Figure 7D) (HLC; HLC LDM D40, 50 uM): 12.7 and 17.8 and 12.3 and 20.8 and 25.8 and 69.6
resazurin conversion (Supplementary Figure 7D) (HLC; HLC LDM D40, 100 uM): 11 and 11.6 and 11.2 and 11.3 and 10.7 and 11.5
resazurin conversion (Supplementary Figure 7D) (HLC; HLC LDM D40, 300 uM): 13.5 and 13.3 and 13.6 and 12.4 and 12.2 (2×)
resazurin conversion (Supplementary Figure 7D) (HLC; HLC LDM D40, 600 uM): 13.7 (2×) and 13.1 and 13.4 and 13.5 and 13.2
% resazurin conversion (HLC; HLC AAGLY D40, 1200 uM): 28.9% and 30.9% and 30.5% and 32.9% and 28% and 30.1%
% resazurin conversion (HLC; HLC LDM D40, 1200 uM): 14.7% and 15.3% and 13.9% and 14.1% and 13.7% and 12%
resazurin conversion (Supplementary Figure 7D) (HC3X; 3 uM, listed as Nefadazone): 123.3 and 103.5 and 107.9 and 73 and 98.7 and 69.4
resazurin conversion (Supplementary Figure 7D) (HC3X; 5 uM, listed as Nefadazone): 105.3 and 82.4 and 66.4 and 71.1 and 119.1 and 75.8
resazurin conversion (Supplementary Figure 7D) (HC3X; 10 uM, listed as Nefadazone): 99 and 147.2 and 96.3 and 91.8 and 116 and 76.9
resazurin conversion (Supplementary Figure 7D) (HC3X; 30 uM, listed as Nefadazone): 10.5 and 10.9 and 12.1 and 10 and 9.5 and 10.1
resazurin conversion (Supplementary Figure 7D) (HC3X; 50 uM, listed as Nefadazone): 10 and 9.9 and 9.3 (2×) and 9.2 and 9.8
resazurin conversion (Supplementary Figure 7D) (HC3X; 100 uM, listed as Nefadazone): 10.6 and 10.4 and 9.7 and 9.8 and 9.4 and 9.6
resazurin conversion (Supplementary Figure 7D) (HC3X; 300 uM, listed as Nefadazone): 11.9 and 11.5 and 10.9 and 11.2 and 10.5 and 10.7
resazurin conversion (Supplementary Figure 7D) (HC3X; 600 uM, listed as Nefadazone): 12 and 12.2 and 11.3 and 11.6 and 11.1 and 10.9
IC50/Cmax (HC3X; human): 12.43
% resazurin conversion (HC3X; repeat exposure, HC3X AAGLY D40, 1200 uM, listed as Nefadazone): 12.8% and 12.4% and 11.8% and 12.1% and 11.5% and 12.2%
resazurin conversion (Supplementary Figure 7D) (HepG2; HepG2 AAGLY D30, 3 uM): 105.9 and 126.8 and 102.6 and 103 and 93.1 and 96.9
resazurin conversion (Supplementary Figure 7D) (HepG2; HepG2 AAGLY D30, 5 uM): 129.6 and 134.9 and 121.5 and 111.6 and 104 and 111.7
resazurin conversion (Supplementary Figure 7D) (HepG2; HepG2 AAGLY D30, 10 uM): 105.3 and 123.3 and 96.5 and 99.1 and 96.1 and 97.4
resazurin conversion (Supplementary Figure 7D) (HepG2; HepG2 AAGLY D30, 30 uM): 36 and 76.7 and 84.8 and 78.3 and 78 and 67.3
resazurin conversion (Supplementary Figure 7D) (HepG2; HepG2 AAGLY D30, 50 uM): 9 and 9.3 and 8 (2×) and 8.1 and 7.7
resazurin conversion (Supplementary Figure 7D) (HepG2; HepG2 AAGLY D30, 100 uM): 9.2 and 9.7 and 8.4 (2×) and 7.9 and 8.1
resazurin conversion (Supplementary Figure 7D) (HepG2; HepG2 AAGLY D30, 300 uM): 11.5 and 11.8 and 10.1 (2×) and 10.3 and 9.9
resazurin conversion (Supplementary Figure 7D) (HepG2; HepG2 AAGLY D30, 600 uM): 11.8 and 11.6 and 10.3 and 10.8 and 10.2 and 10.1
resazurin conversion (Supplementary Figure 7D) (HepG2; HepG2 CTL D7, 3 uM): 81.4 and 72 and 103.7 and 72.2 and 87 and 94.4
resazurin conversion (Supplementary Figure 7D) (HepG2; HepG2 CTL D7, 5 uM): 84.8 and 64.7 and 80.3 and 68.3 and 74.8 and 74.1
resazurin conversion (Supplementary Figure 7D) (HepG2; HepG2 CTL D7, 10 uM): 81.6 and 63.4 and 87.3 and 63.9 and 78.5 and 72.9
resazurin conversion (Supplementary Figure 7D) (HepG2; HepG2 CTL D7, 30 uM): 60.5 and 51.3 and 64.3 and 51.4 and 61.6 and 55.4
resazurin conversion (Supplementary Figure 7D) (HepG2; HepG2 CTL D7, 50 uM): 35.6 and 31 and 32.6 and 33.9 and 34.6 and 33.7
resazurin conversion (Supplementary Figure 7D) (HepG2; HepG2 CTL D7, 100 uM): 30.9 and 30.6 and 31.4 and 30 and 30.5 and 29.7
resazurin conversion (Supplementary Figure 7D) (HepG2; HepG2 CTL D7, 300 uM): 36.6 and 35.8 and 37 and 36.1 and 37.2 and 36
resazurin conversion (Supplementary Figure 7D) (HepG2; HepG2 CTL D7, 600 uM): 37.5 (2×) and 36.2 and 38.4 and 36.6 and 34.9
% resazurin conversion (HepG2; HepG2 AAGLY D30, 1200 uM): 11% and 9.3% and 9.9% and 9.1%
% resazurin conversion (HepG2; HepG2 CTL D7, 1200 uM): 34.4% and 33.1% and 36.4% and 33% and 34.9% and 32.3%
